Data reported in patent US11013780B2, “Methods of treating female infertility” (Myovant Sciences GmbH, priority 2016, dated 2021).
Where no end group is shown, it is not given here.

What was measured:
[1] = in vivo; cited from earlier work
LH surge = conditions: trigger in ART protocol with GnRH antagonist and FSH; cited from earlier work
serum LH, FSH, E2 = experiment: Physiological effects in healthy women, follicular phase (Example 11, Part 1); type: in vivo, human; conditions: 9.6 nmol/kg SC
Source text: The study population included healthy women, aged 18-35 years, with BMI 18-30 kg/m^2, no medical problems and not taking any medications or hormonal contraception. Three healthy, female subjects were selected and randomized and received a single dose of each of the three study regimens noted below (one regimen per study period). All women were scheduled for three Study D1 Visits (each during the follicular phase of the menstrual cycle). […] The order in which a subject receives one of the three study regimens was determined by a randomization matrix.
The study included a screening visit to collect participants' full medical history and to conduct a general medical examination and blood testing. The three study periods each consisted of three planned study visits per study period (excluding screening and follow-up). Study Day 1 (SD1) Visit of each study period occurred during the follicular phase of the menstrual cycle (days 1-4), and the SD2 and SD3 Visits occurred at 24- and 48-hrs post-dose, respectively (FIG. 14). A follow-up phone call happened 7-10 days post-dose in each study period.
Immediately following dosing, serum LH, FSH, E2 (oestradiol), P (progesterone) and SHBG levels were assessed at 30 minute intervals for up to 14 hours (FIGS. 15A-15C, 16A-16C, 17, 18, 19, 20A, and 20B). These PD variables were also assessed at 24 (Study Day 2) and 48 hours (Study Day 3) post-dose. SHBG changes less rapidly and was measured every 3 hours to reduce blood volume.
Up to 3 mL of blood volume were required for measurement of serum reproductive hormone levels (LH, FSH, E2 and P). Blood samples for serum analysis were collected in plain Vacutainer tubes (Beckton Dickson, Franklin Lakes, N.J., USA), and spun after clotting (˜1 hour at room temperature) for 10 minutes at 3000 rpm. Serum was then stored in a locked freezer at −20° C. until assay of serum reproductive hormone levels.

For “kisspeptin-54: previously shown to be clinically effective as a trigger for oocyte maturation in IVF studies (GTSLSPPPESSGSPQQPGLSAPHSRQIPAPQGAVLVQREKDLPNYNWNSFGLRF; ends and bridges not checked; UniProt Q15726 68-121, looked up)”, the half-life [1] is listed as 32 min, the “Time by which the LH surge resolved” value (LH surge) is listed as ≤ 36 h and the “Time of LH peak after administration” value (serum LH, FSH, E2) is listed as 4 to 6 h.
